From US8557737B2, “Methods of altering poppy characteristics” (priority 2005, dated 2013)

Key:
Format in all cases: in vivo, Papaver somniferum
poppy crops [1] = assay: Example 9: field trial, mesosulfuron-methyl and metsulfuron-methyl, morphine crop; settings: COMPOUND 1 120 MG/HA + PULSE .2 % V/V at GC, LRU and EBE
Protocol: (§1) All trials were conducted on poppy crops. Seed was treated with Thiram (5.6 g of Thiram 800/kg seed) and Apron (4 g/kg) and sown at a rate of approximately 750 g/ha. Fertilisers were applied at sowing. Most commonly, either 50:50 lime:superphosphate/triple superphosphate at 125 kg/ha, or lime:superphosphate at 250 kg/ha, were mixed with seed and drilled at a depth of 15 mm. In the same operation, NPK (nitrogen:phosphorus:potassium), at various rates, was banded 75 mm below the seed, unless otherwise stated. All crops were subjected to herbicide sprays for weed control, fungicide sprays for disease control, insecticide sprays if appropriate and were irrigated as required.
(§2) All spray applications were made with a precision sprayer, using Silvan Lurmark flat-fan, low-drift nozzles (LD110-0015). Spray equipment was calibrated to deliver 153 L water/ha.
(§3) At harvest, a 2 m×4 m quadrat was placed in each plot (3 m×6 m, unless otherwise stated) and capsules hand-picked from this area. Capsules were broken up, seed and capsule material separated and weighed. Capsule moisture readings were taken with a moisture meter. Alkaloid yield data were calculated on Pesticide Research Manager (version 5 for Windows) using the formulae below. Briefly, capsule weight was adjusted for moisture to a dry weight, 5% of seed weight was added to this (this amount of capsule material regularly occurs in seed samples after processing) to give a capsule weight per plot. Seed weight was adjusted to 95% of crude weight. Straw weights were determined by multiplying dry capsule weight by 1.3 (estimated amount of stem material in a commercial harvest) and adjusted to 11% moisture. When Lontrel was applied to crops exact capsule and seed weight data were entered. Analyses of variance and a Multiple Range Test were performed on data using Pesticide Research Manager.
Trial to evaluate applications of mesosulfuron-methyl (Compound 2) and metsulfuron-methyl (Compound 1), in a morphine crop. Treatment sprays were applied to crop at ground cover, late run-up and early bud-emergence, respectively. Plant heights were measured at green capsule stage, and lodging assessed on the day of capsule harvest.

poppy crops [2] = assay: Example 12: field trial, metsulfuron-methyl, Sunny and metsulfuron-methyl+Sunny at row cover, early run-up, late run-up, morphine crop; settings: Trt 3: COMPOUND 1 120 MG/HA + PULSE .2% V/V at RC, ERU and LRU
Protocol: as §1, §2
as §3, with “Manager. Significant differences (P=0.05) between treatments are denoted by different lower case letters adjacent to treatment means in the tables of results.” for “Manager.”
Trial to evaluate applications of metsulfuron-methyl (Compound 1), Sunny and metsulfuron-methyl+Sunny, in a morphine crop. Treatment sprays were applied to crop at row cover, early run-up and late run-up. Plant heights were measured at end of flowering.

poppy crops [3] = assay: Example 19: field trial, sulfosulfuron, thifensulfuron-methyl and metsulfuron-methyl, morphine crop; settings: 120 MG/HA + PULSE .2 % V/V, applied at M-LRU and LRU-BE
Protocol: as §1, §2, §3
Trial to evaluate applications of sulfosulfuron, thifensulfuron-methyl and metsulfuron-methyl, in a morphine crop. Treatment sprays were applied to crop at mid-late run-up and late-run-up/bud-emergence, respectively. Plant heights were measured some 10 weeks after the last application. Lodging was assessed at capsule harvest.

poppy crops [4] = assay: Example 17: field trial, triasulfuron, mesosulfuron-methyl and metsulfuron-methyl at early run-up and mid-late run-up, morphine crop; settings: Trt 2: COMPOUND 1 120 MG/HA + PULSE .2% V/V at ERU and M-LRU
Protocol: as §1, §2, §3
Trial to evaluate applications of triasulfuron, mesosulfuron-methyl and metsulfuron-methyl, in a morphine crop. Treatment sprays were applied to with crop at early run-up and mid-late run-up, respectively. Plant heights were measured on 6 weeks after last application and lodging was assessed at capsule harvest.

poppy crops [5] = assay: Example 16: field trial, metsulfuron-methyl, mesosulfuron-methyl and triasulfuron at row cover and ground cover/early run-up, morphine crop; settings: Trt 2: COMPOUND 1 120 MG/HA + PULSE .2% V/V at RC and GC/ERU
Protocol: as §1, §2, §3
Trial to evaluate applications of metsulfuron-methyl (Compound 1), mesosulfuron-methyl (Compound 2) and triasulfuron (Compound 3), in a morphine crop. Treatment sprays were applied to crop at row cover and ground cover/early run-up, respectively. Plant heights were assessed 5 weeks after last application and lodging was assessed at capsule harvest.

poppy crops [6] = assay: Example 11: field trial, metsulfuron-methyl, Sunny and metsulfuron-methyl+Sunny at row cover, early run-up, bud-emergence/early hook, morphine crop; settings: Trt 4: COMPOUND 1 120 MG/HA + PULSE .2% V/V at RC, ERU and BE/EH
Protocol: as §1, §2
as §3, with “Manager. Significant differences (P=0.05) between treatments are denoted by different lower case letters adjacent to treatment means in the tables of results.” for “Manager.”
Trial to evaluate applications of metsulfuron-methyl (Compound 1), Sunny and metsulfuron-methyl+Sunny, in a morphine crop. Treatment sprays were applied to crop at row cover, early run-up and bud-emergence/early hook. Plant heights were measured at green capsule stage.

## COC(=O)c1ccccc1S(=O)(=O)NC(=O)Nc1nc(C)nc(OC)n1 [Compound 1, metsulfuron-methyl]
Poppy crops [1]
  CAPSULE/SEED RATIO: 3.844 a
  CROP WEIGHT: 2.67 b t/ha
  MORPHINE: 43.94 a kg/ha
  SEED: 468 b kg/ha
  STRAW: 2206 a kg/ha
  STRAW MORPHINE: 2.04 a %
Poppy crops [1]; assessed on the day of capsule harvest
  LODGING: 2.3 c %
Poppy crops [1]; measured at green capsule stage
  HEIGHT: 94.5 ab cm
Poppy crops [2]
  CAPS/SEED RATIO: 10.444 a
  CROP WEIGHT: 2.24 b t/ha
  MORPHINE: 47.11 b kg/ha
  SEED: 143 c kg/ha
  STRAW: 2099 a kg/ha
  STRAW MORPHINE: 2.24 c %
Poppy crops [2]; height at end of flowering
  HEIGHT: 83.4 bc cm
Poppy crops [3]
  CAPSULE/SEED RATIO: 6.352
  CROP WEIGHT: 1.33 t/ha
  MORPHINE: 21.65 kg/ha
  SEED: 131 kg/ha
  STRAW: 1203 kg/ha
  STRAW MORPHINE %: 1.80%
Poppy crops [3]; measured some 10 weeks after last application
  PLANT HEIGHT: 72 cm
Poppy crops [4]
  CAPS/SEED RATIO: 8.976 a
  CROP WEIGHT: 2.60 b t/ha
  MORPHINE: 49.48 a kg/ha
  SEED: 187 c kg/ha
  STRAW: 2343 a kg/ha
  STRAW MORPHINE: 2.11 c %
Poppy crops [4]; 6 weeks after last application
  PLANT HEIGHT: 97.0 c cm
Poppy crops [4]; at capsule harvest
  LODGING: 2.7 b %
Poppy crops [5]
  CAPS/SEED RATIO: 1.740 a
  CROP WEIGHT: 2.46 c t/ha
  MORPHINE: 37.76 bc kg/ha
  SEED: 698 d kg/ha
  STRAW: 1749 bc kg/ha
  STRAW MORPHINE: 2.15 ab %
Poppy crops [5]; 5 weeks after last application
  PLANT HEIGHT: 90.0 c cm
Poppy crops [6]
  CAPSULE/SEED RATIO: 8.488 a
  CROP WEIGHT: 3.22 d t/ha
  LODGING: 1.2 b %
  MORPHINE: 60.39 a kg/ha
  SEED: 267 c kg/ha
  STRAW: 2955 a kg/ha
  STRAW MORPHINE: 2.04 a %
Poppy crops [6]; height at green capsule stage
  HEIGHT: 99.2 a cm
